Converted amounts (≈) assume the structure as drawn. The source made the active and inactive calls. No cut-off for these calls is given here.
Legend:
Aspergillus fumigatus [1] = assay: Antifungal activity against Aspergillus fumigatus ATCC 46645 at 8 ug/ml by broth dilution method; assay type: functional, organism-based
Aspergillus niger [2] = assay: Antifungal activity against Aspergillus niger ATCC 16404 at 8 ug/ml by broth dilution method; assay type: functional, organism-based
Cryptococcus neoformans [3] = assay: Antifungal activity against Cryptococcus neoformans ATCC 34664 at 8 ug/ml by broth dilution method; assay type: functional, organism-based
Fusarium proliferatum [4] = assay: Antifungal activity against Fusarium proliferatum ATCC 10052 at 8 ug/ml by broth dilution method; assay type: functional, organism-based
Candida tropicalis [5] = assay: Antifungal activity against Candida tropicalis ATCC 750 by broth dilution method; assay type: functional
Candida albicans [6] = assay: Antifungal activity against Candida albicans ATCC 24433 by broth dilution method; assay type: functional
Nakaseomyces glabratus [7] = assay: Antifungal activity against Candida glabrata ATCC 90030 by broth dilution method; assay type: functional
Pichia kudriavzevii [8] = assay: Antifungal activity against Candida krusei ATCC 6258 at 8 ug/ml by broth dilution method; assay type: functional, organism-based
Cryptococcus neoformans [9] = assay: Antifungal activity against Cryptococcus neoformans ATCC 34664 at 4 ug/ml by broth dilution method; assay type: functional, organism-based
Pichia kudriavzevii [10] = assay: Antifungal activity against Candida krusei ATCC 6258 at 4 ug/ml by broth dilution method; assay type: functional, organism-based
Aspergillus niger [11] = assay: Antifungal activity against Aspergillus niger ATCC 16404 at 4 ug/ml by broth dilution method; assay type: functional, organism-based
Fusarium proliferatum [12] = assay: Antifungal activity against Fusarium proliferatum ATCC 10052 at 4 ug/ml by broth dilution method; assay type: functional, organism-based
Aspergillus fumigatus [13] = assay: Antifungal activity against Aspergillus fumigatus ATCC 46645 at 4 ug/ml by broth dilution method; assay type: functional, organism-based
Aspergillus fumigatus [14] = assay: Antifungal activity against Aspergillus fumigatus ATCC 46645 at 16 ug/ml by broth dilution method; assay type: functional, organism-based
Aspergillus niger [15] = assay: Antifungal activity against Aspergillus niger ATCC 16404 at 16 ug/ml by broth dilution method; assay type: functional, organism-based
Cryptococcus neoformans [16] = assay: Antifungal activity against Cryptococcus neoformans ATCC 34664 at 16 ug/ml by broth dilution method; assay type: functional, organism-based
Pichia kudriavzevii [17] = assay: Antifungal activity against Candida krusei ATCC 6258 at 16 ug/ml by broth dilution method; assay type: functional, organism-based
Fusarium proliferatum [18] = assay: Antifungal activity against Fusarium proliferatum ATCC 10052 at 16 ug/ml by broth dilution method; assay type: functional, organism-based
Fusarium proliferatum [19] = assay: Antifungal activity against Fusarium proliferatum ATCC 10052 at 128 ug/ml by broth dilution method; assay type: functional, organism-based
Pichia kudriavzevii [20] = assay: Antifungal activity against Candida krusei ATCC 6258 at 128 ug/ml by broth dilution method; assay type: functional, organism-based
Aspergillus fumigatus [21] = assay: Antifungal activity against Aspergillus fumigatus ATCC 46645 at 128 ug/ml by broth dilution method; assay type: functional, organism-based
Aspergillus niger [22] = assay: Antifungal activity against Aspergillus niger ATCC 16404 at 128 ug/ml by broth dilution method; assay type: functional, organism-based
Cryptococcus neoformans [23] = assay: Antifungal activity against Cryptococcus neoformans ATCC 34664 by broth dilution method; assay type: functional
Pichia kudriavzevii [24] = assay: Antifungal activity against Candida krusei ATCC 6258 by broth dilution method; assay type: functional
Nakaseomyces glabratus [25] = assay: Antifungal activity against Candida glabrata ATCC 90030 at 8 ug/ml by broth dilution method; assay type: functional, organism-based
Candida albicans [26] = assay: Antifungal activity against Candida albicans ATCC 24433 at 8 ug/ml by broth dilution method; assay type: functional, organism-based
Candida tropicalis [27] = assay: Antifungal activity against Candida tropicalis ATCC 750 at 128 ug/ml by broth dilution method; assay type: functional, organism-based
Candida tropicalis [28] = assay: Antifungal activity against Candida tropicalis ATCC 750 at 4 ug/ml by broth dilution method; assay type: functional, organism-based
Nakaseomyces glabratus [29] = assay: Antifungal activity against Candida glabrata ATCC 90030 at 4 ug/ml by broth dilution method; assay type: functional, organism-based
Candida albicans [30] = assay: Antifungal activity against Candida albicans ATCC 24433 at 4 ug/ml by broth dilution method; assay type: functional, organism-based

Row | Structure (SMILES) | MIC50 (Candida tropicalis [5]) [µg/mL] | MIC50 (Candida albicans [6]) [µg/mL] | MIC50 (Nakaseomyces glabratus [7]) [µg/mL] | Activity (Fusarium proliferatum [19]) | Activity (Aspergillus fumigatus [21]) | Activity (Aspergillus niger [22]) | MIC50 (Cryptococcus neoformans [23]) [µg/mL] | also measured
1 | O=C1OCC(c2cccs2)=C1c1ccc(OCC(O)(Cn2cncn2)c2ccc(F)cc2F)cc1 (racemic) | 2 (≈ 4.04 µM) | 0.5 (≈ 1.01 µM) | 0.5 (≈ 1.01 µM) |  |  |  |  | Activity (Aspergillus fumigatus [1]): inactive; Activity (Aspergillus niger [2]): inactive; Activity (Cryptococcus neoformans [3]): inactive; Activity (Fusarium proliferatum [4]): inactive; Activity (Pichia kudriavzevii [8]): inactive
2 | O=C1OCC(c2ccccc2)=C1c1ccc(OCC(O)(Cn2cncn2)c2ccc(F)cc2F)cc1 (racemic) | 2 (≈ 4.09 µM) | 0.5 (≈ 1.02 µM) | 0.5 (≈ 1.02 µM) |  |  |  |  | Activity (Cryptococcus neoformans [9]): inactive; Activity (Pichia kudriavzevii [10]): inactive; Activity (Aspergillus niger [11]): inactive; Activity (Fusarium proliferatum [12]): inactive; Activity (Aspergillus fumigatus [13]): inactive
3 | CC1(O)OC(=O)C(c2ccc(OCC(O)(Cn3cncn3)c3ccc(F)cc3F)cc2)=C1c1ccc(F)cc1F (racemic) | 8 (≈ 14.4 µM) | 2 (≈ 3.6 µM) | 2 (≈ 3.6 µM) |  |  |  |  | Activity (Aspergillus fumigatus [14]): inactive; Activity (Aspergillus niger [15]): inactive; Activity (Cryptococcus neoformans [16]): inactive; Activity (Pichia kudriavzevii [17]): inactive; Activity (Fusarium proliferatum [18]): inactive
4 | COc1cc(C=O)cc(OC)c1OCC(O)(Cn1cncn1)c1ccc(F)cc1F (racemic) | 64 (≈ 153 µM) | 1 (≈ 2.38 µM) | 1 (≈ 2.38 µM) | inactive | inactive | inactive | 8 (≈ 19.1 µM) | Activity (Pichia kudriavzevii [20]): inactive
5 | O=C(O)Cc1ccc(OCC(O)(Cn2cncn2)c2ccc(F)cc2F)cc1 (racemic) | 64 (≈ 164 µM) | 8 (≈ 20.5 µM) | 8 (≈ 20.5 µM) | inactive | inactive | inactive | 64 (≈ 164 µM) | Activity (Pichia kudriavzevii [20]): inactive
6 | O=Cc1ccc(OCC(O)(Cn2cncn2)c2ccc(F)cc2F)cc1 (racemic) | 4 (≈ 11.1 µM) | 0.5 (≈ 1.39 µM) | 0.5 (≈ 1.39 µM) | inactive | inactive | inactive | 2 (≈ 5.57 µM) | MIC50 (Pichia kudriavzevii [24]): 16 µg/mL (≈ 44.5 µM)
7 | COc1ccc(/C=C2\SC(=S)NC2=O)cc1OCC(O)(Cn1cncn1)c1ccc(F)cc1F (racemic) |  |  |  |  |  |  |  | Activity (Aspergillus fumigatus [1]): inactive; Activity (Nakaseomyces glabratus [25]): inactive; Activity (Aspergillus niger [2]): inactive; Activity (Cryptococcus neoformans [3]): inactive; Activity (Fusarium proliferatum [4]): inactive; Activity (Candida albicans [26]): inactive; Activity (Pichia kudriavzevii [8]): inactive
8 | COc1ccc(C=O)cc1OCC(O)(Cn1cncn1)c1ccc(F)cc1F (racemic) |  | 2 (≈ 5.14 µM) | 2 (≈ 5.14 µM) | inactive | inactive | inactive | 16 (≈ 41.1 µM) | Activity (Pichia kudriavzevii [20]): inactive; Activity (Candida tropicalis [27]): inactive
9 | OC(Cn1cncn1)(Cn1cncn1)c1ccc(F)cc1F [FLUCONAZOLE] | 1 (≈ 3.27 µM) | 0.25 (≈ 0.816 µM) | 1 (≈ 3.27 µM) | inactive | inactive | inactive | 2 (≈ 6.53 µM) | MIC50 (Pichia kudriavzevii [24]): 32 µg/mL (≈ 104 µM)
10 | COc1cc(C2=C(c3ccc(Br)cc3)COC2=O)ccc1OCC(O)(Cn1cncn1)c1ccc(F)cc1F (racemic) | 4 (≈ 6.68 µM) | 1 (≈ 1.67 µM) | 2 (≈ 3.34 µM) |  |  |  | 8 (≈ 13.4 µM) | Activity (Pichia kudriavzevii [10]): inactive; Activity (Aspergillus niger [11]): inactive; Activity (Fusarium proliferatum [12]): inactive; Activity (Aspergillus fumigatus [13]): inactive
11 | O=C1OCC(c2ccc(Br)cc2)=C1c1ccc(OCC(O)(Cn2cncn2)c2ccc(F)cc2F)cc1 (racemic) | 4 (≈ 7.04 µM) | 0.5 (≈ 0.88 µM) | 2 (≈ 3.52 µM) |  |  |  | 1 (≈ 1.76 µM) | Activity (Aspergillus fumigatus [1]): inactive; Activity (Aspergillus niger [2]): inactive; Activity (Fusarium proliferatum [4]): inactive; MIC50 (Pichia kudriavzevii [24]): 8 µg/mL (≈ 14.1 µM)
12 | COc1cc(/C=C2\N=C(c3ccccc3)OC2=O)ccc1OCC(O)(Cn1cncn1)c1ccc(F)cc1F (racemic) |  |  |  |  |  |  |  | Activity (Cryptococcus neoformans [9]): inactive; Activity (Candida tropicalis [28]): inactive; Activity (Pichia kudriavzevii [10]): inactive; Activity (Nakaseomyces glabratus [29]): inactive; Activity (Aspergillus niger [11]): inactive; Activity (Candida albicans [30]): inactive; Activity (Fusarium proliferatum [12]): inactive; Activity (Aspergillus fumigatus [13]): inactive
